Assay results: patent publication US20180333382A1, “PHARMACEUTICAL COMPOSITIONS COMPRISING DGLA AND USE OF SAME” (DS Biopharma Limited, priority 2017, published 2018)
“And” between values parts separate entries of the source, which are not always exact repeats. Equal values may be shown once.

Test system: spontaneous hypertensive rats
Experiment: Arterial pressure and phenylephrine-induced hypertensive response after seven days of gavage (DGLA, aspirin, DGLA + aspirin)
Format: in vivo, rat
Details: for Mean arterial pressure at baseline, Average SAP / Mean arterial pressure with an intravenous dose of Phenylephrine 20 μg/kg, Average SAP / Mean arterial pressure at baseline, individual rats / Mean arterial pressure with an intravenous dose of Phenylephrine 20 μg/kg, individual rats: seven consecutive days of gavage; for Mean arterial pressure at baseline, individual rats / Mean arterial pressure with an intravenous dose of Phenylephrine 20 μg/kg, individual rats: Rat #1-#5; for Arterial pressure, Diastol / Arterial pressure, Systol / Mean systemic arterial pressure: seven days of gavage, before phenylephrine
Protocol: An in vivo investigation of anti-hypertension efficacy following co-administration of DGLA and aspirin in spontaneous hypertensive rats was conducted. This experiment investigated the efficacy of DGLA when co-administered chronically with aspirin to reduce the hypertensive response induced acutely by phenylephrine in spontaneous hypertensive rats. Spontaneously hypertensive adult male rats (250-300 g), bred by Charles River Laboratories, were used for this assay. The animals were identified upon arrival as per CCPA guidelines. The animals were pair-housed by group (low dose+aspirin, high dose+aspirin or aspirin alone) for the duration of the oral gavage prior to surgery. All animal care and vivarium maintenance was recorded, with documents kept at the test facility.
The concentrations of DGLA to be tested (50 and 500 mg/kg) as well as the concentration of aspirin (10 mg/kg) were selected by the Sponsor based on information available at the time of design of this study. They were selected to cover a range of concentrations useful for the identification of the mechanism of action of the test article.
All solution preparations were documented on a Solution Contents Form, defining labelling information and all relevant information on reagents: batch number, storage conditions, contents, and preparation/expiry dates.
The test article was formulated using olive oil as the vehicle. This stock solution was then administered by oral gavage once per day for seven consecutive days. A low and a high dose (50 mg/kg and 500 mg/kg) were tested.
A 5 mg/ml stock solution of aspirin was prepared by dissolving the appropriate amount of aspirin in 100% DMSO which was then diluted in water. The concentration of DMSO was less than 1%. The appropriate volume was administered by oral gavage to each animal once per day for seven consecutive days. The stock solution was stored at room temperature and was considered stable for the duration of the gavage.
The appropriate volume was administered to each animal by an intravenous injection at the end of the experiment on the surgery day. The stock solution was stored at 4° C. and was considered stable for the duration of the experiment.
A stock solution of phenylephrine of 1 mg/ml were prepared in PBS (pH=7.4±0.05). The stock solution was stored at 4° C. The expiration date was set at 14 days after preparation.
Male spontaneous hypertensive rats weighing approximately 300 g arrived at the facility at least two days before beginning the oral gavage. Animals were assigned to one of three groups (low dose+aspirin, high dose+aspirin, and aspirin), and were pair-housed during the acclimation period. Each group (n=4) received the appropriate compound by oral gavage using a 16 G feeding needle. The stock solution was administered once per day for seven consecutive days. On the seventh day of administration, the animals underwent surgery and hypertensive monitoring.
Rats were anesthetized with a 2.5-3.0% isoflurane-O2 mixture in an induction box. When the animals were removed from the induction box, they were connected onto a nose cone to maintain anesthesia during the tracheotomy. The animals were tracheotomised with an endotracheal tube (7 cm length from connector to the tip made with a PE205 tube from BD and a 16 G needle) to facilitate spontaneous breathing, stabilize hemodynamics, and to keep the rat under anesthesia with an isoflurane-O2 mixture. Two catheters were inserted: one in the right femoral artery for systemic arterial pressure (SAP) measurement, and one in the right femoral vein for delivery of the hypertensor and positive control. ECG signals were acquired with ECG contacts placed in a Lead-1 configuration on the anaesthetized animal, and a pulse oxymeter was attached to the animal's hind paw to enable continuous monitoring of the general condition of the rat during the surgical procedure.

In the case of `CCCCC/C=C\C/C=C\C/C=C\CCCCCCC(=O)O` [DS107G, Dihomo gamma linolenic acid], the “Mean arterial pressure at baseline, Average SAP” value (DGLA 50 mg/kg) is reported as 74.5 mm of Hg, the “Mean arterial pressure with an intravenous dose of Phenylephrine 20 μg/kg, Average SAP” value (DGLA 50 mg/kg) is reported as 115.7 mm of Hg and the “Mean arterial pressure at baseline, individual rats” value (DGLA 50 mg/kg) is reported as 51.77 mm of Hg and 87.81 mm of Hg and 62.11 mm of Hg and 86.01 mm of Hg and 84.93 mm of Hg. The “Mean arterial pressure with an intravenous dose of Phenylephrine 20 μg/kg, individual rats” value (DGLA 50 mg/kg) was 91.82 mm of Hg and 137.84 mm of Hg and 105.44 mm of Hg and 132.68 mm of Hg and 110.72 mm of Hg, the “Arterial pressure, Diastol” value (DGLA 50 mg/kg) was 75 mmHg and the “Arterial pressure, Systol” value (DGLA 50 mg/kg) was 120 mmHg. The “Mean systemic arterial pressure” value (DGLA 50 mg/kg) was 90 mmHg, the “Mean arterial pressure at baseline, Average SAP” value (DGLA 500 mg/kg) was 82.2 mm of Hg and the “Mean arterial pressure with an intravenous dose of Phenylephrine 20 μg/kg, Average SAP” value (DGLA 500 mg/kg) was 112.1 mm of Hg. For the same compound, the “Mean arterial pressure at baseline, individual rats” value (DGLA 500 mg/kg) was 64.81 mm of Hg and 91.55 mm of Hg and 94.41 mm of Hg and 66.56 mm of Hg and 93.64 mm of Hg, the “Mean arterial pressure with an intravenous dose of Phenylephrine 20 μg/kg, individual rats” value (DGLA 500 mg/kg) was 105.21 mm of Hg and 119.33 mm of Hg and 118.12 mm of Hg and 97.17 mm of Hg and 120.82 mm of Hg and the “Arterial pressure, Diastol” value (DGLA 500 mg/kg) was 80 mmHg. The “Arterial pressure, Systol” value (DGLA 500 mg/kg) was 135 mmHg, the “Mean systemic arterial pressure” value (DGLA 500 mg/kg) was 98 mmHg and the “effect on arterial pressure in spontaneously hypertensive rats” value (DGLA 50 or 500 mg/kg alone, effect eliminated by aspirin) was “successfully decreases the arterial pressure”. The “lowering of the mean systemic arterial blood pressure” value (spontaneous hypertensive rats treated with DGLA alone, observed previously) was “up to 25%”.
